Assay results taken from patent US5171837A, “Peptide capable of binding interleukin 6 and an adsorbent comprising the peptide immobilized on a carrier” (Kuraray Co., Ltd., priority 1989, dated 1992).
Non-standard residues stand in square brackets, D forms with d. Residues, ends and D or L forms follow the SMILES beside them. *: point of attachment. X1 = NCCCCCCCCCCCCCCCCCC(=O)*; 12Ado = NCCCCCCCCCCCC(=O)O

molecular target: T1, IL-6 (Homo sapiens, UniProt P05231); experiment: Activity for inhibition of binding of IL-6 to receptor by peptide (IL-6 receptor expression cells, FITC labeled anti-IL-6 antibody); settings: 5 μg of the peptide, 50 ng of IL-6, 10^5 IL-6 receptor expression cells, 4° C for one hour
T1 construct: purchased Genzyme Corp
T1 sequence (P05231 30-212): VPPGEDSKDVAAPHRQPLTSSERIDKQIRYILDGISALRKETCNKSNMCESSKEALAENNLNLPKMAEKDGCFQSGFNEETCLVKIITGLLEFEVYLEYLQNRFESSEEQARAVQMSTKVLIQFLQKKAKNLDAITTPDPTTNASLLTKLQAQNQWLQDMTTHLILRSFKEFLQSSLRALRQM
Method: A human lymphocyte fraction was obtained from human peripheral blood with Ficoll-Paque (manufactured by Pharmacia-LKB). The fraction was reacted with a cultured supernatant of Epstein-Barr Virus producing cell strain B958 to transform the human lymphocytes to obtain IL-6 receptor expression cells.
1 mg of anti-human IL-6 antibody [Rabbit Anti-human Interleukin-6, manufactured by Genzyme Corp.] was dissolved in a 0.05M carbonate buffer solution (pH: 9.5) and to the resulting solution was added 10 μg of FITC [Fluorescein isothiocyanate, manufactured by Sigma Corp.]. The mixture was stirred at 4° C. overnight. The resulting solution was passed through PD-10 column (manufactured by Pharmacia-LKB) to obtain FITC labeled anti-IL-6 antibody as a firstly eluted fraction.
10^5 IL-6 receptor expression cells were suspended in 0.5 % BSA (bovine serum albumin, manufactured by Sigma Corp.)-PBS (a phosphate buffer solution containing 0.15 M sodium chloride, pH 7.4) and to the resulting suspension were added 50 ng of IL-6 (Human recombinant interleukin-6, manufactured by Genzyme Corp.) and 5 μg of the peptide obtained in any one of Examples 1 to 96. The suspension was allowed to stand at 4° C for one hour. Then, after washing the cells centrifugally with 0.5% BSA-PBS three times (1200 rpm, 5 min.), 1 μg of FITC labeled anti-IL-6 antibody was added and the mixture was allowed to stand at 4° C. for 30 minutes. After washing with 0.5% BSA-PBS three times, the intensity of fluorescence of the cells was determined. The binding inhibition activity of the peptide of each Example was evaluated, by taking the value obtained without addition of the peptide as a control and taking the value- obtained without addition of IL-6 as a blank, according to the following formula: [formula]

Binding inhibition activity (%) | Compound
65% | C[C@H](NC(=O)[C@@H]1CCCN1C(=O)[C@H](CO)NC(=O)[C@H](CC(N)=O)NC(=O)[C@H](CCC(N)=O)NC(=O)[C@H](Cc1ccccc1)NC(=O)[C@H](CCCCN)NC(=O)[C@H](CCCNC(=N)N)NC(=O)CCCCCCCCCCCCCCCCCN)C(=O)N[C@@H](CCC(=O)O)C(=O)N[C@@H](CC(=O)O)C(=O)N[C@@H](Cc1ccccc1)C(=O)N[C@@H](CCC(N)=O)C(=O)N[C@@H](CCC(=O)O)C(=O)N1CCC[C@H]1C(=O)N[C@@H](CS)C(=O)N[C@@H](CCC(N)=O)C(=O)N[C@@H](Cc1ccc(O)cc1)C(=O)N[C@@H](CO)C(=O)N[C@@H](CCC(N)=O)C(=O)N[C@@H](CCC(=O)O)C(=O)N[C@@H](CO)C(=O)NCC(=O)O [Example 20] (X1-RKFQNSPAEDFQEPCQYSQESG-OH)
48% | CC[C@H](C)[C@H](NC(=O)[C@H](CC(N)=O)NC(=O)[C@H](CC(=O)O)NC(=O)[C@H](CC(=O)O)NC(=O)[C@H](CC(=O)O)NC(=O)[C@H](CCCCN)NC(=O)[C@H](CC(N)=O)NC(=O)[C@@H](NC(=O)[C@@H](NC(=O)[C@H](CC(C)C)NC(=O)[C@H](C)NC(=O)[C@H](CCC(N)=O)NC(=O)CCCCCCCCCCCN)[C@@H](C)O)[C@@H](C)O)C(=O)N[C@@H](CC(C)C)C(=O)N[C@@H](Cc1ccccc1)C(=O)N[C@@H](CCCNC(=N)N)C(=O)N[C@@H](CC(=O)O)C(=O)N[C@@H](CO)C(=O)N[C@@H](C)C(=O)N[C@@H](CCC(=O)O)C(=O)N[C@@H](CCC(=O)O)C(=O)N[C@@H](CCC(=O)O)C(=O)N[C@@H](CCC(=O)O)C(=O)N[C@@H](CCC(=O)O)C(=O)O [Example 27] (H-[12Ado]QALTTNKDDDNILFRDSAEEEEE-OH)
47% | CC[C@H](C)[C@H](NC(=O)[C@H](CC(N)=O)NC(=O)[C@H](CC(=O)O)NC(=O)[C@H](CC(=O)O)NC(=O)[C@H](CC(=O)O)NC(=O)[C@H](CCCCN)NC(=O)[C@H](CC(N)=O)NC(=O)[C@@H](NC(=O)[C@@H](NC(=O)[C@H](CC(C)C)NC(=O)[C@H](C)NC(=O)[C@H](CCC(N)=O)NC(=O)CCCCCCCCCCCCCCCCCN)[C@@H](C)O)[C@@H](C)O)C(=O)N[C@@H](CC(C)C)C(=O)N[C@@H](Cc1ccccc1)C(=O)N[C@@H](CCCNC(=N)N)C(=O)N[C@@H](CC(=O)O)C(=O)N[C@@H](CO)C(=O)N[C@@H](C)C(=O)NCC(=O)O [Example 28] (X1-QALTTNKDDDNILFRDSAG-OH)
60% | CC(C)C[C@H](NC(=O)[C@H](CCC(=O)O)NC(=O)[C@H](Cc1ccccc1)NC(=O)[C@H](CCCNC(=N)N)NC(=O)[C@H](CC(C)C)NC(=O)[C@H](CCCNC(=N)N)NC(=O)[C@H](Cc1ccc(O)cc1)NC(=O)[C@H](Cc1ccccc1)NC(=O)[C@H](CO)NC(=O)[C@H](CO)NC(=O)[C@H](CC(N)=O)NC(=O)[C@H](Cc1c[nH]c2ccccc12)NC(=O)CCCCCCCCCCCN)C(=O)N[C@@H](CCCNC(=N)N)C(=O)N[C@@H](Cc1ccc(O)cc1)C(=O)N[C@@H](CCCNC(=N)N)C(=O)N[C@@H](C)C(=O)N[C@@H](CCC(=O)O)C(=O)N[C@@H](CCCNC(=N)N)C(=O)N[C@@H](CO)C(=O)N[C@@H](CCCCN)C(=O)N[C@@H](CCC(=O)O)C(=O)N[C@@H](CCC(=O)O)C(=O)N[C@@H](CCC(=O)O)C(=O)N[C@@H](CCC(=O)O)C(=O)N[C@@H](CCC(=O)O)C(=O)O [Example 35] (H-[12Ado]WNSSFYRLRFELRYRAERSKEEEEE-OH)
62% | CC(C)C[C@H](NC(=O)[C@H](CCC(=O)O)NC(=O)[C@H](Cc1ccccc1)NC(=O)[C@H](CCCNC(=N)N)NC(=O)[C@H](CC(C)C)NC(=O)[C@H](CCCNC(=N)N)NC(=O)[C@H](Cc1ccc(O)cc1)NC(=O)[C@H](Cc1ccccc1)NC(=O)[C@H](CO)NC(=O)[C@H](CO)NC(=O)[C@H](CC(N)=O)NC(=O)[C@H](Cc1c[nH]c2ccccc12)NC(=O)CCCCCCCCCCCCCCCCCN)C(=O)N[C@@H](CCCNC(=N)N)C(=O)N[C@@H](Cc1ccc(O)cc1)C(=O)N[C@@H](CCCNC(=N)N)C(=O)N[C@@H](C)C(=O)N[C@@H](CCC(=O)O)C(=O)N[C@@H](CCCNC(=N)N)C(=O)N[C@@H](CO)C(=O)N[C@@H](CCCCN)C(=O)NCC(=O)O [Example 36] (X1-WNSSFYRLRFELRYRAERSKG-OH)
32% | CC(C)C[C@H](NC(=O)[C@H](Cc1c[nH]c2ccccc12)NC(=O)[C@H](CCCNC(=N)N)NC(=O)[C@@H]1CCCN1C(=O)[C@H](CC(N)=O)NC(=O)CCCCCCCCCCCN)C(=O)N[C@@H](CO)C(=O)N[C@H](C(=O)N[C@H](C(=O)N[C@@H](Cc1c[nH]c2ccccc12)C(=O)N[C@@H](CCC(N)=O)C(=O)N[C@@H](CC(=O)O)C(=O)N1CCC[C@H]1C(=O)N[C@@H](Cc1c[nH]cn1)C(=O)N[C@@H](CO)C(=O)N[C@@H](CCC(=O)O)C(=O)N[C@@H](CCC(=O)O)C(=O)N[C@@H](CCC(=O)O)C(=O)N[C@@H](CCC(=O)O)C(=O)N[C@@H](CCC(=O)O)C(=O)O)[C@@H](C)O)C(C)C [Example 51] (H-[12Ado]NPRWLSVTWQDPHSEEEEE-OH)

The next lines start with the molecule.

Compound | Binding inhibition activity (%)
CC(C)C[C@H](NC(=O)[C@@H](NC(=O)[C@@H](NC(=O)[C@H](CO)NC(=O)[C@H](CC(=O)O)NC(=O)CNC(=O)[C@@H]1CCCN1C(=O)[C@H](CC(C)C)NC(=O)[C@H](CO)NC(=O)[C@@H](NC(=O)CCCCCCCCCCCN)[C@@H](C)O)C(C)C)[C@@H](C)O)C(=O)N[C@H](C(=O)N[C@@H](CS)C(=O)N1CCC[C@H]1C(=O)NCC(=O)N[C@H](C(=O)N[C@@H](CCC(=O)O)C(=O)N1CCC[C@H]1C(=O)N[C@@H](CCC(=O)O)C(=O)N[C@@H](CC(=O)O)C(=O)N[C@@H](CCC(=O)O)C(=O)N[C@@H](CCC(=O)O)C(=O)N[C@@H](CCC(=O)O)C(=O)N[C@@H](CCC(=O)O)C(=O)N[C@@H](CCC(=O)O)C(=O)O)C(C)C)[C@@H](C)O [Example 3] (H-[12Ado]TSLPGDSVTLTCPGVEPEDEEEEE-OH) | 40%
CC(C)C[C@H](NC(=O)[C@@H](NC(=O)[C@@H](NC(=O)[C@H](CO)NC(=O)[C@H](CC(=O)O)NC(=O)CNC(=O)[C@@H]1CCCN1C(=O)[C@H](CC(C)C)NC(=O)[C@H](CO)NC(=O)[C@@H](NC(=O)CCCCCCCCCCCCCCCCCN)[C@@H](C)O)C(C)C)[C@@H](C)O)C(=O)N[C@H](C(=O)N[C@@H](CS)C(=O)N1CCC[C@H]1C(=O)NCC(=O)N[C@H](C(=O)N[C@@H](CCC(=O)O)C(=O)N1CCC[C@H]1C(=O)N[C@@H](CCC(=O)O)C(=O)N[C@@H](CC(=O)O)C(=O)NCC(=O)O)C(C)C)[C@@H](C)O [Example 4] (X1-TSLPGDSVTLTCPGVEPEDG-OH) | 42%
CC(C)C[C@H](NC(=O)[C@H](Cc1c[nH]cn1)NC(=O)[C@@H](NC(=O)[C@@H](NC(=O)CNC(=O)CCCCCCCCCCCN)[C@@H](C)O)C(C)C)C(=O)N[C@@H](CC(C)C)C(=O)N[C@H](C(=O)N[C@@H](CC(=O)O)C(=O)N[C@H](C(=O)N1CCC[C@H]1C(=O)N1CCC[C@H]1C(=O)N[C@@H](CCC(=O)O)C(=O)N[C@@H](CCC(=O)O)C(=O)N1CCC[C@H]1C(=O)N[C@@H](CCC(N)=O)C(=O)N[C@@H](CC(C)C)C(=O)N[C@@H](CO)C(=O)N[C@@H](CS)C(=O)N[C@@H](Cc1ccccc1)C(=O)N[C@@H](CCCNC(=N)N)C(=O)N[C@@H](CCCCN)C(=O)N[C@@H](CCC(=O)O)C(=O)N[C@@H](CCC(=O)O)C(=O)N[C@@H](CCC(=O)O)C(=O)N[C@@H](CCC(=O)O)C(=O)N[C@@H](CCC(=O)O)C(=O)O)C(C)C)C(C)C [Example 11] (H-[12Ado]GTVHLLVDVPPEEPQLSCFRKEEEEE-OH) | 34%
CC(C)C[C@H](NC(=O)[C@H](Cc1c[nH]cn1)NC(=O)[C@@H](NC(=O)[C@@H](NC(=O)CNC(=O)CCCCCCCCCCCCCCCCCN)[C@@H](C)O)C(C)C)C(=O)N[C@@H](CC(C)C)C(=O)N[C@H](C(=O)N[C@@H](CC(=O)O)C(=O)N[C@H](C(=O)N1CCC[C@H]1C(=O)N1CCC[C@H]1C(=O)N[C@@H](CCC(=O)O)C(=O)N[C@@H](CCC(=O)O)C(=O)N1CCC[C@H]1C(=O)N[C@@H](CCC(N)=O)C(=O)N[C@@H](CC(C)C)C(=O)N[C@@H](CO)C(=O)N[C@@H](CS)C(=O)N[C@@H](Cc1ccccc1)C(=O)N[C@@H](CCCNC(=N)N)C(=O)N[C@@H](CCCCN)C(=O)NCC(=O)O)C(C)C)C(C)C [Example 12] (X1-GTVHLLVDVPPEEPQLSCFRKG-OH) | 35%
C[C@H](NC(=O)[C@@H]1CCCN1C(=O)[C@H](CO)NC(=O)[C@H](CC(N)=O)NC(=O)[C@H](CCC(N)=O)NC(=O)[C@H](Cc1ccccc1)NC(=O)[C@H](CCCCN)NC(=O)[C@H](CCCNC(=N)N)NC(=O)CCCCCCCCCCCN)C(=O)N[C@@H](CCC(=O)O)C(=O)N[C@@H](CC(=O)O)C(=O)N[C@@H](Cc1ccccc1)C(=O)N[C@@H](CCC(N)=O)C(=O)N[C@@H](CCC(=O)O)C(=O)N1CCC[C@H]1C(=O)N[C@@H](CS)C(=O)N[C@@H](CCC(N)=O)C(=O)N[C@@H](Cc1ccc(O)cc1)C(=O)N[C@@H](CO)C(=O)N[C@@H](CCC(N)=O)C(=O)N[C@@H](CCC(=O)O)C(=O)N[C@@H](CO)C(=O)N[C@@H](CCC(=O)O)C(=O)N[C@@H](CCC(=O)O)C(=O)N[C@@H](CCC(=O)O)C(=O)N[C@@H](CCC(=O)O)C(=O)N[C@@H](CCC(=O)O)C(=O)O [Example 19] (H-[12Ado]RKFQNSPAEDFQEPCQYSQESEEEEE-OH) | 62%
